Data set [1] has as its target P-glycoprotein (Homo sapiens, UniProt P08183). The data set is described as follows: Rho123 efflux assay in A549 taxol-resistant lung cancer cells. Conditions: Example 8, 10 μM of each compound, 24 h, then Rho123 1 h.
The subject of data set [2] is MCF-7 (Breast) (Dox sensitive). Description: MTT cytotoxicity assay, MCF-7 Dox sensitive. It is filed as cell-based. As to conditions: Homo sapiens, MCF7, 72 h, 3 days. As for the experimental part:
(§1) Cell cultures and cytotoxicity assays have been carried out. […] Subsequently, 10 μL of MTT reagents is added to each well and incubated at 37° C. for 4 hours followed by the addition of 100 μL solubilization buffer (10% SDS in 0.01 mol/L HCl) and overnight incubation. Absorbance at 585 nm is determined from each well the next day. The percentage of cell viability is calculated using the following formula: Cell viability (%)=Cells number treated/Cells number DMSO control×100. Data are obtained from three independent experiments. The resistant factor is calculated by dividing the IC50 in resistant cells by its IC50 against drug-sensitive cells.

Data set [3] has as its system MCF-7 (Breast) (Dox resistant). Description: MTT cytotoxicity assay, MCF-7 Dox resistant. It is filed as cell-based, human. Conditions: for Resistant Factor: IC50 in Dox resistant MCF-7 divided by IC50 in Dox sensitive MCF-7. The method, then:
as §1
(In general: Formazan colour is commonly taken as a measure of viable cells.)

Data set [4] deals with MCF-7 (Breast) (Taxol sensitive). The data set is described as follows: MTT cytotoxicity assay, MCF-7 Taxol sensitive. It is filed as cell-based. As to conditions: Homo sapiens, MCF7, 72 h, 3 days. As for the experimental part: as §1
For data set [5], the system named is MCF-7 (Breast) (Taxol resistant). Description: MTT cytotoxicity assay, MCF-7 Taxol resistant. It counts as cell-based, human. As to conditions: for pIC50: Homo sapiens, MCF7, 72 h, MTT, 3 days; for Resistant Factor: IC50 in Taxol resistant MCF-7 divided by IC50 in Taxol sensitive MCF-7. As for the experimental part: as §1
In data set [6] the test system is A549 (Lung) (Taxol sensitive). Description: MTT cytotoxicity assay, A549 Taxol sensitive. As to conditions: Homo sapiens, A549, 72 h, 3 days. It counts as cell-based. As for the experimental part: as §1
Data set [7] deals with A549 (Lung) (Taxol resistant). The data set is described as follows: MTT cytotoxicity assay, A549 Taxol resistant. It is filed as cell-based, human. Conditions: for pIC50: Homo sapiens, A549, 72 h, MTT, 3 days; for Resistant Factor: IC50 in Taxol resistant A549 divided by IC50 in Taxol sensitive A549. The method, then:
as §1

For data set [8], the system named is HCT-8 (Colon) (Taxol sensitive). Description: MTT cytotoxicity assay, HCT-8 Taxol sensitive. It is filed as cell-based. Conditions: Homo sapiens, HCT-8, 72 h, 3 days. The method, then:
as §1

Data set [9] deals with HCT-8 (Colon) (Taxol resistant). The data set is described as follows: MTT cytotoxicity assay, HCT-8 Taxol resistant. It counts as cell-based, human. As to conditions: for pIC50: Homo sapiens, HCT-8, 72 h, MTT, 3 days; for Resistant Factor: IC50 in Taxol resistant HCT-8 divided by IC50 in Taxol sensitive HCT-8. As for the experimental part: as §1
Data set [10] has as its system A549 taxol-resistant lung cancer cells. The data set is described as follows: Annexin V/propidium iodide flow cytometry of cell death, A549 taxol-resistant. It counts as cell-based, human. Conditions: 1-10 μM pomiferin with 40 μM taxol, 24 h. Background: Flow cytometry measures light scatter and fluorescence of single cells or particles in a stream.
Protocol: (§2) Cell death and viability are measured using an Annexin V staining kit (BD Biosciences, San Jose, Calif., USA). […] Cells were then harvested and analysed by multiparametric flow cytometry using FITC-Annexin V and propidium iodide staining (BD Biosciences, San Jose, Calif., USA) according to the manufacturer's instructions. Flow cytometry has been then carried out using a FACSCalibur flow cytometer (BD Biosciences, San Jose, Calif., USA). […] Data were obtained from three independent experiments.
The test system of data set [11] is HCT-8 taxol-resistant colon cancer cells. The data set is described as follows: Annexin V/propidium iodide flow cytometry of cell death, HCT-8 taxol-resistant. It is filed as cell-based, human. Conditions: 1-10 μM pomiferin with 40 μM taxol, 24 h.
Protocol: as §2
Data set [12] has as its system P-glycoprotein. The data set is described as follows: Rho123 efflux assay in MCF-7 taxol/doxorubicin-sensitive breast cancer cells. As to conditions: MCF-7 drug-sensitive cells without P-glycoprotein expression; pomiferin 5-20 μM or verapamil 10 μM, 24 h, then Rho123 1 h.
The mark [13] stands for this setting: Homo sapiens, MCF7, 72 h, MTT, 3 days.

pIC50: −log10 of the molar value. “Also recorded” adds a separate entry of the source. A value given as a limit tells only on which side of the number the result lay.

P-glycoprotein (Homo sapiens, UniProt P08183), sequence (P08183 whole entry): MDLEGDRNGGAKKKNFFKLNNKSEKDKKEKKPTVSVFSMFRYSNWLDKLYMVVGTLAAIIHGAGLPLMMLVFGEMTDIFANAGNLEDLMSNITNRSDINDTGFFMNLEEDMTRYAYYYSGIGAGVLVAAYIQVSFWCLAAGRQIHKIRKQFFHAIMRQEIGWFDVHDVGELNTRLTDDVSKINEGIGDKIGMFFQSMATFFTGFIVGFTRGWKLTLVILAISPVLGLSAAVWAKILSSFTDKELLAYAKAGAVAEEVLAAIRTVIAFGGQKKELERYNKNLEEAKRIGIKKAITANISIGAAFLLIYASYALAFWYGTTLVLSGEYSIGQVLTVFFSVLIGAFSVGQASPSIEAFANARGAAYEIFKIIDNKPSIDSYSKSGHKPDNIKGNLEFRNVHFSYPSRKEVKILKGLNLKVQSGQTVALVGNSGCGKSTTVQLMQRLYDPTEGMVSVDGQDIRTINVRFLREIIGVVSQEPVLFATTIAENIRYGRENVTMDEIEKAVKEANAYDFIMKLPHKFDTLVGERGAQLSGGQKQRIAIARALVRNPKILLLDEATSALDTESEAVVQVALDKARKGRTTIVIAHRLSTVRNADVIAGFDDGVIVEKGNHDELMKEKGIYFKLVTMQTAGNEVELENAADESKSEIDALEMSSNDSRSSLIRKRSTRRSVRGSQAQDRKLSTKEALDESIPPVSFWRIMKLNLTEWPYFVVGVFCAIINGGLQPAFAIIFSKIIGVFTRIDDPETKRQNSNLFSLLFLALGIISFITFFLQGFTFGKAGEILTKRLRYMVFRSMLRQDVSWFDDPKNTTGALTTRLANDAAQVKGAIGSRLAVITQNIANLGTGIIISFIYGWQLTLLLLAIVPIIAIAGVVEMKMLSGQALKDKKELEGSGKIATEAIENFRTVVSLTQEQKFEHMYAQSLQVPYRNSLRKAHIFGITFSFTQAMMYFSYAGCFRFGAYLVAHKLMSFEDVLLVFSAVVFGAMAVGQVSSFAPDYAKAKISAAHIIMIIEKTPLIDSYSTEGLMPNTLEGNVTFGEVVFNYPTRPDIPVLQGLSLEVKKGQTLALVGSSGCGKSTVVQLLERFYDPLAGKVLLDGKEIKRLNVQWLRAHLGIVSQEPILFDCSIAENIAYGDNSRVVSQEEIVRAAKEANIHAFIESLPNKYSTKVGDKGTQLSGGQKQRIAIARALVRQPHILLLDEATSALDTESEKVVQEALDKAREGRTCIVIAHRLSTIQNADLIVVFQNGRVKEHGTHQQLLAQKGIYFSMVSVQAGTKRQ

Turning to `COc1ccc(-c2coc3c4c(c(CC=C(C)C)c(O)c3c2=O)OC(C)(C)C=C4)cc1` [osajin 4′-methyl ether], the “P-glycoprotein inhibition (Rho123 accumulation)” value (“P-glycoprotein inhibition” below) in data set [1] was “showed P-glycoprotein inhibition with a different extent”.

Usually pIC50 stands for the IC50 on a negative log10 scale, so that one unit is a factor of ten. As for `CC(C)=CCc1c2c(c3occ(-c4ccc(O)c(O)c4)c(=O)c3c1O)C=CC(C)(C)O2` [pomiferin, 3-(3,4-dihydroxyphenyl)-5-hydroxy-8,8-dimethyl-6-(3-methylbut-2-enyl)pyrano[2,3-h] chromen-4-one], the pIC50 was 4.44 in data set [2]; 4.82 in data set [3] (setting [13]); 4.45 in [4]; 4.57 in data set [5]; 4.74 in data set [6]; 4.76 in data set [7]. Besides, the pIC50 in data set [8] is 4.59; in [9], 4.75. Also, the “Resistant Factor” value is 0.42 × in data set [3]; 0.76 × in data set [5]; 0.76× in data set [5] (listed as Pomiferin); 0.95 × in [7]; 0.95× in [7] (listed as Pomiferin); 0.69 × in data set [9]. For the same compound, the “Resistant Factor” value in data set [9] (listed as Pomiferin) is 0.69×. Besides, the entries for the “effect on taxol-mediated cytotoxicity (cell death)” value in data set [10] and in [11] were “significantly enhanced the taxol-mediated cytotoxicity” and “enhanced taxol-mediated cytotoxicity”, respectively. For the same compound, in data set [12], the “Rho123 fluorescence signal / accumulation in cells” value was “no difference in fluorescence signal compared with Rho123 stained cells”.

For orientation: IC50 means the concentration that gives 50% inhibition. For the compound `COc1cccc2c1C(=O)c1c(O)c3c(c(O)c1C2=O)C[C@@](O)(C(=O)CO)C[C@@H]3O[C@H]1C[C@H](N)[C@H](O)[C@H](C)O1` [doxorubicin, reference compound], the IC50 in [2] came out at 0.463 µg/mL; in data set [3] (setting [13]), 10 µg/mL. For the same compound, the “Resistant Factor” value in data set [3] is given as 21.6 ×.

Take `CC1(C)C=Cc2c(c3c(c4c(=O)c(-c5ccc(O)cc5)coc24)OC(C)(C)CC3)O1` [isoosajin, 3,4-dihydro-11-(4-hydroxyphenyl)-2,2,6,6-tetramethyl-2H,6H,12H-benzo[1,2-b:3,4-b′:5,6-b″]tripyran-12-one]: in data set [1], the “P-glycoprotein inhibition” value is recorded as “showed P-glycoprotein inhibition with a different extent; also recorded: comparable effect compared to pomiferin”.

As to `CC(=O)O[C@H]1C(=O)[C@@]2(C)[C@H]([C@H](OC(=O)c3ccccc3)[C@]3(O)C[C@H](OC(=O)[C@H](O)[C@@H](NC(=O)c4ccccc4)c4ccccc4)C(C)=C1C3(C)C)[C@]1(OC(C)=O)CO[C@@H]1C[C@@H]2O` [Taxol, paclitaxel, reference compound], the pIC50 is more than 9.00 in data set [4]; 5.30 in data set [5]; 7.51 in data set [6]; 4.50 in data set [7]; more than 9.00 in data set [8]; 4.45 in [9]. Further, the “Resistant Factor” value in data set [5] is listed as 5000×; in data set [5] (listed as taxol) it was “over 5000 ×”; in data set [7], 1012.945×; in [7] (listed as taxol) it was 1000 ×; in [9] it was more than 35300×; in [9] (listed as taxol), 35300 ×.

As for `COc1ccc(C2COc3c4c(c(CC=C(C)C)c(OC)c3C2=O)OC(C)(C)C=C4)cc1OC` (stereo not shown) [pomiferin trimethyl ether], the “P-glycoprotein inhibition” value in data set [1] is on record as “showed P-glycoprotein inhibition with a different extent”.

Take `CC1(C)C=Cc2c(c3c(c4c(=O)c(-c5ccc(O)c(O)c5)coc24)OC(C)(C)CC3)O1` [isopomiferin, 7,8-dihydro-3-(3,4-dihydroxyphenyl)-6,6,10,10-tetramethyl-4H,6H,10H-benzo[1,2-b:3,4-b′:5,6-b″]tripyran-4-one]: the “P-glycoprotein inhibition” value in data set [1] is given as “showed P-glycoprotein inhibition with a different extent; also recorded: comparable effect compared to pomiferin”.
